This note sets out measurements from ChEMBL document CHEMBL1146842, “Design, synthesis, and biological evaluations of novel quinolones as HIV-1 non-nucleoside reverse transcriptase inhibitors” (Bioorg Med Chem Lett, 2006).

A value given as a limit tells only on which side of the number the result lay.

The EC50 is the concentration giving half of the maximal effect. Low values mean a more potent agent, high ones a less potent agent. Broadly, the CC50 is the concentration that lowers cell viability or growth by half. The low end stands for harm at low concentration, the high end for better tolerance by the cells.

For assay [1], the system named is Human immunodeficiency virus 1. Nature of the assay: Antiviral activity against HIV1 Y181C mutant. In kind it is functional, organism-based.
In assay [2] the test system is Human immunodeficiency virus 1. Nature of the assay: Antiviral activity against HIV1 Y188L mutant. It is filed as functional, organism-based.
Another assay deals with HEK293. Kind of assay: Cytotoxicity against HEK293T cells. It is filed as functional. The note with it: Homo sapiens.
The subject of assay [3] is Human immunodeficiency virus 1. Nature of the assay: Antiviral activity against HIV1 Y181S mutant. It is filed as functional, organism-based.
Assay [4] has as its system Human immunodeficiency virus 1. Nature of the assay: Antiviral activity against HIV1 V106A mutant. It is filed as functional, organism-based.
For assay [5], the system named is Human immunodeficiency virus 1. Kind of assay: Antiviral activity against HIV1 Y181H mutant. In kind it is functional, organism-based.
Assay [6] deals with Human immunodeficiency virus 1. Kind of assay: Antiviral activity against HIV1 F227L mutant. It is filed as functional, organism-based.
For assay [7], the system named is Human immunodeficiency virus 1. Kind of assay: Antiviral activity against HIV1. In kind it is functional, organism-based.
Assay [8] concerns Human immunodeficiency virus 1. Nature of the assay: Antiviral activity against HIV1 V179E mutant. In kind it is functional, organism-based.
For assay [9], the system named is Human immunodeficiency virus 1. Nature of the assay: Antiviral activity against HIV1 K103N mutant. It is filed as functional, organism-based.
The subject of assay [10] is Human immunodeficiency virus 1. Nature of the assay: Antiviral activity against HIV1 E138K mutant. It is filed as functional, organism-based.
The subject of assay [11] is Human immunodeficiency virus 1. Kind of assay: Antiviral activity against HIV1 I135V mutant. It is filed as functional, organism-based.
In assay [12] the test system is Human immunodeficiency virus 1. Kind of assay: Antiviral activity against HIV1 L100I mutant. It is filed as functional, organism-based.

As for `C=CCCCC12CC1(C(=O)OCC)C(=O)Nc1ccc(Cl)cc12` (stereo not given), the EC50 is over 10000 nM in assay [1]; over 10000 nM in [2]; 1680 nM in [3]; 260 nM in assay [4]; 89 nM in assay [5]; 9 nM in assay [6]. The EC50 amounted to 1 nM in [7]; 304 nM in assay [8]; 1250 nM in assay [9]; 57 nM in assay [10]; 33 nM in assay [11]; 35 nM in assay [12]. This compound also came in with a CC50 in the assay on HEK293 of over 10000 nM.
Take `CCCCCCC12CC1(C(=O)OCC)C(=O)Nc1ccc(Cl)cc12` (stereo not given): the EC50 in assay [1] was 2250 nM; in [2] it was over 10000 nM; in [3] it was 929 nM; in assay [4], 878 nM; in assay [5], 61 nM; in assay [6], 41 nM. For the same compound, the EC50 in [7] was found to be 25 nM; in assay [8] it was 1600 nM; in assay [9], 3080 nM; in [10], 98 nM; in assay [11], 66 nM; in assay [12], 53 nM. For the same compound, in the assay with HEK293, the CC50 is over 10000 nM.
Regarding `CCCCC12CC1(COC)C(=O)Nc1ccc(Cl)cc12` (stereo not given), the EC50 was 5030 nM in [1]; over 10000 nM in [2]; 2700 nM in assay [3]; 726 nM in [4]; 121 nM in assay [5]; 20 nM in assay [6]. The EC50 was found to be 45 nM in assay [7]; 721 nM in assay [8]; 2920 nM in assay [9]; 42 nM in assay [10]; 46 nM in assay [11]; 33 nM in assay [12]. This compound had a cytotoxic concentration (CC50) with HEK293 of over 10000 nM.
With `CCCCC12CC1(COC(C)=O)C(=O)Nc1ccc(Cl)cc12` (stereo not given), the EC50 in assay [1] is 7460 nM; in assay [2], over 10000 nM; in assay [3], 2350 nM; in assay [4], 4720 nM; in assay [5], 59 nM; in assay [6], 1 nM. Besides, the concentration giving a half-maximal response (EC50) in assay [7] is 37 nM; in assay [8], 735 nM; in [9] it was 2620 nM; in [10] it was 54 nM; in [11], 64 nM; in assay [12], 45 nM. In the assay on HEK293, this compound returned a CC50 of over 10000 nM.
`CCCCCC12CC1(C(=O)OCC)C(=O)Nc1ccc(Cl)cc12` (stereo not given): the concentration giving a half-maximal response (EC50) in assay [1] is 926 nM; in [2] it was over 10000 nM; in [3] it was 369 nM; in assay [4] it was 238 nM; in assay [5] it was 16 nM; in assay [6] it was 5 nM. In addition, the EC50 in assay [7] is 1 nM; in [8], 234 nM; in assay [9] it was 669 nM; in assay [10], 18 nM; in assay [11], 17 nM; in [12] it was 12 nM. Further, in the assay on HEK293, the half-maximal cytotoxic concentration (CC50) was over 10000 nM.
For the compound `CCCCC12CC1(C(N)=O)C(=O)Nc1ccc(Cl)cc12` (stereo not given), the EC50 is 7960 nM in assay [1]; over 10000 nM in [2]; 2520 nM in assay [3]; 2180 nM in [4]; 63 nM in assay [5]; 1 nM in assay [6]. For the same compound, the EC50 was 12 nM in [7]; 439 nM in [8]; 3830 nM in [9]; 46 nM in assay [10]; 15 nM in assay [11]; 13 nM in assay [12]. This compound registered a CC50 with HEK293 of over 10000 nM.
Take `CCCCC12CC1(C(=O)OC)C(=O)Nc1ccc(Cl)cc12` (stereo not given): the half-maximal effective concentration (EC50) was 727 nM in assay [1]; 7340 nM in assay [2]; 581 nM in assay [3]; 57 nM in [4]; 8 nM in assay [5]; over 10000 nM in assay [6]. The EC50 in assay [7] is 1 nM; in assay [8], 244 nM; in assay [9], 682 nM; in assay [10], 8 nM; in [11], 12 nM; in assay [12], 4 nM. The compound also registered a CC50 in the assay with HEK293 of over 10000 nM.
In the case of `C=CCOC(=O)C12CC1(CCCC)c1cc(Cl)ccc1NC2=O` (stereo not given), the EC50 is 2940 nM in assay [1]; over 10000 nM in assay [2]; 932 nM in assay [3]; 1220 nM in [4]; 20 nM in [5]; 1 nM in assay [6]. The EC50 worked out at 1 nM in assay [7]; 233 nM in [8]; 1080 nM in assay [9]; 32 nM in [10]; 23 nM in assay [11]; 1 nM in assay [12]. Besides, the CC50 in the assay with HEK293 was over 10000 nM.
Consider `CCOC(=O)C12CC1(CC(C)C)c1cc(Cl)ccc1NC2=O` (stereo not given), for which the EC50 in [1] was over 10000 nM; in assay [2] it was over 10000 nM; in [3] it was 901 nM; in assay [4] it was 2940 nM; in assay [5] it was 210 nM; in assay [6], 22 nM. Also, the EC50 is 57 nM in assay [7]; 3950 nM in [8]; over 10000 nM in [9]; 91 nM in assay [10]; 85 nM in assay [11]; 63 nM in assay [12]. Besides, in the assay with HEK293, the CC50 is over 10000 nM.
In the case of `CCCCC12CC1(COCC)C(=O)Nc1ccc(Cl)cc12` (stereo not given), the half-maximal effective concentration (EC50) in assay [1] was 6240 nM; in [2] it was over 10000 nM; in [3], 4180 nM; in assay [4], 1120 nM; in [5] it was 216 nM; in [6], 251 nM. In addition, the EC50 in assay [7] came out at 65 nM; in [8] it was 1030 nM; in assay [9], 3960 nM; in assay [10] it was 94 nM; in [11], 74 nM; in assay [12], 39 nM. This compound gave a CC50 in the assay with HEK293 of over 10000 nM.
